Key:
[1] = species on record: Mus musculus; test: animal or person; details: ip
[2] = species on record: Mus musculus; test: animal or person; details: ip; remark: listed apart in the source

With `O=P1(N(CCCl)CCCl)NCCCO1` (configuration not stated) [CYCLOPHOSPHAMIDE ANHYDROUS] the ILS at 100 mg/kg [1] was > 100% and the ILS at 200 mg/kg [2] was > 150%.
